21 molecules from patent US11098056B2, “UDP glycosyltransferase inhibitors and methods of use” (GENZYME CORPORATION, priority 2018, dated 2021) can be followed below.

Each structure is given as a SMILES string.

The target of the test is T1, UGT8 (Homo sapiens, UniProt Q16880).
T1 construct: host or cells: OE19 cells
T1 sequence (Q16880 21-541): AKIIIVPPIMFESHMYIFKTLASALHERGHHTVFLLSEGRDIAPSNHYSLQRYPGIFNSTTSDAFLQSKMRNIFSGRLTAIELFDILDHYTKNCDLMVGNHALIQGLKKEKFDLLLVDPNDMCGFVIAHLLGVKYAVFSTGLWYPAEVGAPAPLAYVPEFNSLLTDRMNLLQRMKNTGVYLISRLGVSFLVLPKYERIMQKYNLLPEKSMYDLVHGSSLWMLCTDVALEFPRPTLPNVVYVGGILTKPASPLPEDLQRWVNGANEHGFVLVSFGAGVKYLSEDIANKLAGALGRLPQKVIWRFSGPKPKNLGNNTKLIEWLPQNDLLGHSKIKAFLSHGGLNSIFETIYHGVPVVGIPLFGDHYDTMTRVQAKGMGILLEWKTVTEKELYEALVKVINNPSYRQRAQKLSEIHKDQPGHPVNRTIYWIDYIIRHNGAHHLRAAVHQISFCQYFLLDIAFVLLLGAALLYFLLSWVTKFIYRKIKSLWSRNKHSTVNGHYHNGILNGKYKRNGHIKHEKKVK
Put plainly: In vitro sulfatide (SFT) synthesis inhibition in OE19 cells, LC-MS/MS readout. It counts as cell-based. The settings on record: 72 hr, sulfatide by LC-MS/MS, read-out: Potency range (IC50, In-vitro SFT). The procedure:
For medium throughput screening, library compounds were dispensed into CellBIND 384 well plates to a final concentration of 10 μM. OE19 cells (Sigma) were grown in to 70-90% confluency in RPMI 1640+L-glutamine and […]; were trypsinized to achieve suspension and were aliquoted at 2,500 cells/well, total well volume 50 μl. Plates were incubated 72 hr at 37° C. in 5% CO2; supernatant was removed and plates were dried, heat-sealed and stored at −20° C. until analysis.
For IC50 determinations, the same procedure was followed except that test compounds were added to the plate as dose-downs in triplicate to yield concentration response curves.
Mass Spectrometer Analysis of Sulfatide (SFT):
Assay plates were thawed and 85 μl mobile phase B (5 mM ammonium formate^+0.2% formic acid in 50:50 methanol:acetonitrile). Fifteen μl 20 ng/ml C17 SFT in mobile phase B was added as an internal standard.
SFT was analyzed using an Applied Biosystems API-4000 triple quad mass spectrometer interfaced to a Thermo Scientific Multiplex system (LX-4) equipped with four pumps. Chromatography of OE19 cell samples or 2B5-mouse cells treated with compounds was performed using a Waters Acquity UPLC BEH C8 2.1×50 mm column with 1.7 um particle size. The chromatography was performed using the following mobile phases. Mobile phase A (MPA): 0.2% formic acid and 5 mM ammonium formate in deionized water; MPB: see above. The LC method was run in isocratic mode for 4 sequentially running columns using 95% MPB and 5% MPA with flow rate of 1 ml/min and a column temperature of 60° C.
The Triple quad mass spectrometer was run in Negative Ionization mode monitoring the following MRM transitions and using the following parameters:
Electrospray voltage was […], and source temperature was 550° C.

Consider `CNC(=O)c1csc2c(C(F)(F)F)cc(CC3CCN(C(=O)OCCOC(F)(F)F)CC3)nc12` [Example 632, 2-(Trifluoromethoxy)ethyl 4-((3-(methylcarbamoyl)-7-(trifluoromethyl)thieno[3,2-b]pyridin-5-yl)methyl)piperidine-1-carboxylate], for which the IC50 is below 0.1 µM.

Turning to `CNC(=O)c1csc2c(C(F)(F)F)cc(N3CCC(OC(=O)NCC4CN(C)CCO4)CC3)nc12` (stereo not drawn) [Example 115, 1-(3-(Methylcarbamoyl)-7-(trifluoromethyl)thieno[3,2-b]pyridin-5-yl)piperidin-4-yl ((4-methylmorpholin-2-yl)methyl)carbamate], the half-maximal inhibitory concentration (IC50) is above 1 µM.

For the molecule `CNC(=O)c1csc2c(C(F)(F)F)cc(N3CC[C@H](OC(=O)N(C(C)C)C(C)C)[C@@H](F)C3)nc12` (racemic) [Example 488, (+/−)-trans-3-Fluoro-1-(3-(methylcarbamoyl)-7-(trifluoromethyl)thieno[3,2-b]pyridin-5-yl)piperidin-4-yl diisopropylcarbamate], the half-maximal inhibitory concentration (IC50) was below 0.1 µM.

On to `CNC(=O)c1csc2c(C(F)(F)F)cc(N3CCC(OC(=O)NC(C)CF)CC3)nc12` (racemic) [Example 671, [1-[3-(Methylcarbamoyl)-7-(trifluoromethyl)thieno[3,2-b]pyridin-5-yl]-4-piperidyl] N-(2-fluoro-1-methyl-ethyl)carbamate], for which the IC50 was below 0.1 µM.

For the molecule `CNC(=O)c1csc2c(C(F)(F)F)cc(O[C@@H]3CN(C(=O)OC(C)(C)C)C[C@@H]3F)nc12` (racemic) [Example 609, tert-Butyl (+/−)-cis-3-fluoro-4-((3-(methylcarbamoyl)-7-(trifluoromethyl)thieno[3,2-b]pyridin-5-yl)oxy)pyrrolidine-1-carboxylate], the IC50 is below 0.1 µM.

In the case of `CNC(=O)c1csc2c(C(F)(F)F)c(C)c(O[C@H]3CCN(C(=O)O[C@@H](C)COC(F)(F)F)C[C@H]3F)nc12` [Example 183, (S)-1-(Trifluoromethoxy)propan-2-yl (3R,4S)-3-fluoro-4-((6-methyl-3-(methylcarbamoyl)-7-(trifluoromethyl)thieno[3,2-b]pyridin-5-yl)oxy)piperidine-1-carboxylate], the half-maximal inhibitory concentration (IC50) was below 0.1 µM.

Take `CNC(=O)c1csc2c(C(F)(F)F)cc(OC3CCN(C(=O)OCCOC(F)(F)F)CC3)nc12` [Example 171, 2-(Trifluoromethoxy)ethyl 4-((3-(methylcarbamoyl)-7-(trifluoromethyl)thieno[3,2-b]pyridin-5-yl)oxy)piperidine-1-carboxylate]: the IC50 was below 0.1 µM.

Consider `CNC(=O)c1csc2c(C(F)(F)F)cc(N3CCC(NC(=O)OCC(C)C)CC3)nc12` [Example 297, Isobutyl (1-(3-(methylcarbamoyl)-7-(trifluoromethyl)thieno[3,2-b]pyridin-5-yl)piperidin-4-yl) carbamate], for which the IC50 is below 0.1 µM.

For the molecule `CNC(=O)c1csc2c(C(F)(F)F)c(C)c(N3CCC(OC(=O)N[C@@H](C)C4CC4)CC3)nc12` [Example 151, 1-(6-Methyl-3-(methylcarbamoyl)-7-(trifluoromethyl)thieno[3,2-b]pyridin-5-yl)piperidin-4-yl (S)-(1-cyclopropylethyl)carbamate], the IC50 was below 0.1 µM.

For the molecule `CNC(=O)c1csc2c(C(F)(F)F)nc(N3CCC(OC(=O)N[C@@H](C)COC)CC3)nc12` [Example 186, 1-(7-(Methylcarbamoyl)-4-(trifluoromethyl)thieno[3,2-d]pyrimidin-2-yl)piperidin-4-yl (S)-(1-methoxypropan-2-yl)carbamate], the IC50 was below 0.1 µM.

As for `CNC(=O)c1csc2c(C(F)F)cc(N3CCC(OC(=O)NC(C)C)CC3)nc12` [Example 452, 1-(7-(Difluoromethyl)-3-(methylcarbamoyl)thieno[3,2-b]pyridin-5-yl)piperidin-4-yl isopropylcarbamate], the IC50 is below 0.1 µM.

Regarding `CNC(=O)c1csc2c(C(F)(F)F)cc(OCC3CN(C(=O)OC(C)(C)C)C3)nc12` [Example 585, tert-Butyl 3-(((3-(methylcarbamoyl)-7-(trifluoromethyl)thieno[3,2-b]pyridin-5-yl)oxy)methyl)azetidine-1-carboxylate], the IC50 was in the range of 0.1 to 1 µM.

For the molecule `CNC(=O)c1csc2c(C(F)(F)F)c(Cl)c(N3CCN(CC(=O)NC(C)C)CC3)nc12` [Example 636, 6-Chloro-5-[4-[2-(isopropylamino)-2-oxo-ethyl]piperazin-1-yl]-N-methyl-7-(trifluoromethyl)thieno[3,2-b]pyridine-3-carboxamide], the IC50 fell in the range of 0.1 to 1 µM.

Turning to `CNC(=O)c1csc2c(C(F)(F)F)cc(N3CCC(OC(=O)N4CCn5nccc5C4)CC3)nc12` [Example 95, 1-(3-(Methylcarbamoyl)-7-(trifluoromethyl)thieno[3,2-b]pyridin-5-yl)piperidin-4-yl 6,7-dihydropyrazolo[1,5-a]pyrazine-5(4H)-carboxylate], the IC50 is below 0.1 µM.

Turning to `CNC(=O)c1csc2c(C(F)(F)F)cc(OC3CC4(CCN4C(=O)OCCOC(F)(F)F)C3)nc12` (stereo not drawn) [Example 212, 2-(Trifluoromethoxy)ethyl 6-((3-(methylcarbamoyl)-7-(trifluoromethyl)thieno[3,2-b]pyridin-5-yl)oxy)-1-azaspiro[3.3]heptane-1-carboxylate], the IC50 fell in the range of 0.1 to 1 µM.

For `CNC(=O)c1csc2c(C(F)(F)F)cc(O[C@H]3CN(C(=O)OCCOC(F)(F)F)C[C@H]3F)nc12` (racemic) [Example 611, 2-(Trifluoromethoxy)ethyl (+/−)-cis-3-fluoro-4-((3-(methylcarbamoyl)-7-(trifluoromethyl)thieno[3,2-b]pyridin-5-yl)oxy)pyrrolidine-1-carboxylate], the IC50 is below 0.1 µM.

Consider `CNC(=O)c1csc2c(C(F)(F)F)cc(N3CCC(OC(=O)N4C[C@H](N(C)C)[C@@H]4C)CC3)nc12` [Example 793, 1-(3-(Methylcarbamoyl)-7-(trifluoromethyl)thieno[3,2-b]pyridin-5-yl)piperidin-4-yl (2S,3S)-3-(dimethylamino)-2-methylazetidine-1-carboxylate], for which the concentration for half-maximal inhibition (IC50) fell in the range of 0.1 to 1 µM.

As to `CNC(=O)c1csc2c(C(F)(F)F)c(C)c(O[C@H]3C[C@@H](NC(=O)OCC4CC4)C3)nc12` [Example 218, Cyclopropylmethyl ((1S,3S)-3-((6-methyl-3-(methylcarbamoyl)-7-(trifluoromethyl)thieno[3,2-b]pyridin-5-yl)oxy)cyclobutyl)carbamate], the concentration for half-maximal inhibition (IC50) was below 0.1 µM.

With `CNC(=O)c1csc2c(C(F)(F)F)cc(N3CC(Oc4cncc(F)c4)C3)nc12` [Example 190, 5-(3-((5-Fluoropyridin-3-yl)oxy)azetidin-1-yl)-N-methyl-7-(trifluoromethyl)thieno[3,2-b]pyridine-3-carboxamide], the IC50 is 0.1 to 1 µM.

Take `CNC(=O)c1csc2c(C(F)(F)F)cc(OC3CC4(C3)CN(C(=O)O[C@@H](C)COC(F)(F)F)C4)nc12` [Example 853, (S)-1-(Trifluoromethoxy)propan-2-yl 6-((3-(methylcarbamoyl)-7-(trifluoromethyl)thieno[3,2-b]pyridin-5-yl)oxy)-2-azaspiro[3.3]heptane-2-carboxylate]: the IC50 was below 0.1 µM.

With `CNC(=O)c1csc2c(C(F)(F)F)cc(OC3CC4COCC(C3)N4C(=O)OC(C)(C)C)nc12` (stereo not drawn) [Example 750], the IC50 is above 1 µM.

By IC50 is commonly meant the point on the concentration scale where inhibition reaches its midpoint.
